Assay [1] deals with T1, Mouse ACC (ACC protein purified from liver).
T1 construct: ACC protein was purified by taking advantage of the biotinylation in the carboxylase domain
Nature of the assay: Mouse ACC enzymatic activity assay. The class given is biochemical. The note with it: read-out: EA-CoA mACC IC50. On the procedure:
ACC protein was purified by taking advantage of the biotinylation in the carboxylase domain. Male C57BL/6J mice (Jackson Laboratory) at 8-12 weeks of age were euthanized by using CO2 inhalation method and liver was immediately frozen on dry ice. To 100 mg liver was added 1 mL ice-cold tissue lysis buffer (20 mM Tris-HCl pH 7.5, 150 mM NaCl, 1 mM Na2EDTA, 1 mM EGTA, 1% Triton, 2.5 mM sodium pyrophosphate, 1 mM 3-glycerophosphate, 1 mM Na3VO4, 1 μg/mL leupeptin, 1 tablet of protease inhibitor cocktail (Roche) per 10 mL lysis buffer) followed by homogenization on ice with Power Gen 125 homogenizer (Fisher Scientific). After 30 min incubation on ice, tissue lysate was passed through a 10 mL syringe with 18½ G needle for 10 times to shear DNA. The lysate was then subject to 17.5%-35% saturated ammonium sulfate precipitation by adding 880 mg ammonium sulfate powder (Sigma) to 10 mL liver lysate in 10 min with stirring on ice. Sample was centrifuged at 14,000 rpm (Eppendorf) at 4° C. for 10 min and supernatant was saved for further precipitation by adding 880 mg ammonium sulfate powder to 10 ml supernatant in 10 min with stirring on ice. Sample was centrifuged at 14,000 rpm at 4° C. for 10 min. Supernatant was discarded and pellet was dissolved in 10 mL sample buffer (100 mM Tris-HCl, pH 7.5, 1 mM EDTA, 0.1 mM DTT, 0.5 M NaCl, and 5% glycerol). The sample was then added with 1 mL of Strep Mag beads slurry (Genscript) and rotated at 4° C. for 1 hour. Supernatant was discarded and beads were washed with sample buffer for 3 times. Protein was then eluted by adding 10 mL of 2 mM biotin (Promega) prepared in sample buffer. The eluate was then dialyzed at 4° C. for 1 hour by using Slide-A-Lyzer™ Dialysis Cassettes 10K MWCO (Thermo Fisher Scientific) against 3 changes of 200 mL dialysis buffer (50 mM HEPES, pH 7.5, 0.1 mM DTT, 1.0 mM EDTA, and 10% glycerol). Total protein concentration was then quantitated by using BCA protein assay kit (Pierce).
For ACC enzymatic activity assay, 1 μL serial diluted compounds prepared in DMSO in duplicate were mixed with 8 μL dialyzed sample at 37° C. for 10 min. Ninety one L of reaction buffer (50 mM HEPES pH 7.5, 10 mM MgCl2, 2.0 mM DTT, 0.5 mM acetyl-CoA, 4.0 mM ATP, 15 mM ^13C-NaHCO3, 0.75 mg/mL BSA, 0.5 mM sodium citrate) was added to the tube and mixed thoroughly. After incubation at 37° C. for 1 hour, 300 μl ice-cold quenching buffer (acetonitrile:methanol=1:1, 20 μM carbutamide as internal standard) was added to each tube and mixed well to terminate the reaction. Samples were centrifuged at 14,000 rpm for 10 min (Eppendorf) and supernatant was loaded onto LC-MS/MS for quantitation of malonyl-^13C-CoA (Gao et al., Journal of chromatography B, Analytical technologies in the biomedical and life sciences 853, 303-313 (2007)).
(§1) Shimadzu LC system was used for sample analysis consisting of system controller (Shimadzu CBM-20A), autosampler (Shimadzu SIL-20A), pump A and B (Shimadzu LC-20AD), column oven (Shimadzu CTO-20A), and analytical column (Phenomenex Gemini 5u C18 11A, 100×2 mm). LC was running at 200 μL/min in the binary gradient mode with mobile phase A (5 mM Ammonium Acetate and 5 mM DMBA in water (1,3-Dimethylbutylamine)) and B (methanol). The samples were analyzed on an AB Sciex QTrap4000 LC-MS/MS triple quadrupole mass spectrometer (Applied Biosystems). Malonyl-CoA and malonyl-13C-CoA were monitored in positive ion mode following MRM transitions at 854.2/347.1 and 855.1/246.1, respectively. The product and internal standard were coeluted to the mass spectrometer in 3 s with 50% H2O, 25% MeCN, 25% acetone, and 5 mM ammonium acetate. Ion chromatograms were integrated using the Analyst 1.5.2 software. Peak area ratios were compared against a standard curve and final cellular concentration of malonyl-CoA or production rate of malonyl-13C-CoA was calculated as pmoles/mg protein per minute.

For assay [2], the system named is Human sebocytes. Nature of the assay: Cellular levels of malonyl-CoA in human sebocytes. The note with it: 0.5 h, 30 min incubation, read-out: Malonyl-CoA in Sebo IC50. The format is cell-based. On the procedure:
as §1
Human sebocytes (Celprogen) were grown in growth media (DMEM with 4.5 g/L glucose, 0.584 g/L L-glutamine (Sigma), 100 units/mL of penicillin and 100 μg/mL of streptomycin (Gibco), 10% fetal bovine serum (Gibco)) at 37° C. in a humidified water jacketed incubator (Forma Scientific) supplemented with 5% CO2 till 100% confluency. Cells grown in 152 cm^2 cell culture dish (Corning) were trypsinized with 0.25% trypsin-EDTA (Gibco), centrifuged at 800 rpm for 10 min (Eppendorf) and resuspended in 4 mL growth media. To 1 μL serial diluted compounds in DMSO, 99 μL cells (around 0.5 million cells suspended in growth media) were added and mixed well followed by incubation in cell culture incubator for 30 min. Cells were then centrifuged at 800 rpm for 10 min and 70 μL 10% trichloroacetic acid was added to each well to lyse the cells and precipitate proteins. Cellular levels of malonyl-CoA were quantitated by LC-MS/MS.

Assay [3] addresses T2, human ACC2 (Homo sapiens, UniProt O00763).
T2 construct: purchased BPS Bioscience
Nature of the assay: Human ACC enzymatic activity assay (ACC2). The format is biochemical. The note with it: purified human ACC2; read-out: EA-CoA hACC 2 IC50. On the procedure:
(§2) Human ACC enzymatic activity assays were performed by using purified human ACC1 and ACC2 proteins (BPS Bioscience). ACC1 and ACC2 proteins were diluted in 24.5 μL reaction buffer (50 mM HEPES pH 7.5, 10 mM MgCl2, 2.0 mM DTT, 4.0 mM ATP, 15 mM ^13C-NaHCO3, 0.75 mg/mL BSA, 0.5 mM sodium citrate), and final concentrations of ACC1 and ACC2 were 0.4 μg/mL and 0.48 μg/mL. For each reaction, 0.5 μL of serial diluted compounds were prepared in DMSO in duplicate or triplicate and mixed with the above 24.5 μL reaction mixtures with ACC proteins at 37° C. for 10 min. Meanwhile, 25 μL of reaction buffer plus acetyl-CoA (final concentration: 5 μM) was prepared freshly and added to the above 25 μL mixture to initiate the reaction. After incubation at 37° C. for 1-2 hours, 100 μl ice-cold 10% TCA with malonyl-^13C3-CoA (final concentration: 40 nM, Sigma-Aldrich) was added to terminate the reaction. For LC-MS/MS analysis, 300 μL quenching buffer (acetonitrile:methanol=1:1, 20 μM carbutamide as internal standard) was added to each tube and mixed well. Samples were then centrifuged at 14,000 rpm for 10 min (Eppendorf) and supernatants were loaded onto LC-MS/MS for quantitation of […] (Gao et al., Journal of chromatography B, Analytical technologies in the biomedical and life sciences 853, 303-313 (2007)).
as §1

Assay [4] deals with T3, human ACC1 (Homo sapiens, UniProt Q13085).
T3 construct: purchased BPS Bioscience
The assay can be described thus: Human ACC enzymatic activity assay (ACC1). The class given is biochemical. The note with it: purified human ACC1; read-out: EA-CoA hACC 1 IC50. The procedure: as §2, §1

T2 sequence (O00763 whole entry): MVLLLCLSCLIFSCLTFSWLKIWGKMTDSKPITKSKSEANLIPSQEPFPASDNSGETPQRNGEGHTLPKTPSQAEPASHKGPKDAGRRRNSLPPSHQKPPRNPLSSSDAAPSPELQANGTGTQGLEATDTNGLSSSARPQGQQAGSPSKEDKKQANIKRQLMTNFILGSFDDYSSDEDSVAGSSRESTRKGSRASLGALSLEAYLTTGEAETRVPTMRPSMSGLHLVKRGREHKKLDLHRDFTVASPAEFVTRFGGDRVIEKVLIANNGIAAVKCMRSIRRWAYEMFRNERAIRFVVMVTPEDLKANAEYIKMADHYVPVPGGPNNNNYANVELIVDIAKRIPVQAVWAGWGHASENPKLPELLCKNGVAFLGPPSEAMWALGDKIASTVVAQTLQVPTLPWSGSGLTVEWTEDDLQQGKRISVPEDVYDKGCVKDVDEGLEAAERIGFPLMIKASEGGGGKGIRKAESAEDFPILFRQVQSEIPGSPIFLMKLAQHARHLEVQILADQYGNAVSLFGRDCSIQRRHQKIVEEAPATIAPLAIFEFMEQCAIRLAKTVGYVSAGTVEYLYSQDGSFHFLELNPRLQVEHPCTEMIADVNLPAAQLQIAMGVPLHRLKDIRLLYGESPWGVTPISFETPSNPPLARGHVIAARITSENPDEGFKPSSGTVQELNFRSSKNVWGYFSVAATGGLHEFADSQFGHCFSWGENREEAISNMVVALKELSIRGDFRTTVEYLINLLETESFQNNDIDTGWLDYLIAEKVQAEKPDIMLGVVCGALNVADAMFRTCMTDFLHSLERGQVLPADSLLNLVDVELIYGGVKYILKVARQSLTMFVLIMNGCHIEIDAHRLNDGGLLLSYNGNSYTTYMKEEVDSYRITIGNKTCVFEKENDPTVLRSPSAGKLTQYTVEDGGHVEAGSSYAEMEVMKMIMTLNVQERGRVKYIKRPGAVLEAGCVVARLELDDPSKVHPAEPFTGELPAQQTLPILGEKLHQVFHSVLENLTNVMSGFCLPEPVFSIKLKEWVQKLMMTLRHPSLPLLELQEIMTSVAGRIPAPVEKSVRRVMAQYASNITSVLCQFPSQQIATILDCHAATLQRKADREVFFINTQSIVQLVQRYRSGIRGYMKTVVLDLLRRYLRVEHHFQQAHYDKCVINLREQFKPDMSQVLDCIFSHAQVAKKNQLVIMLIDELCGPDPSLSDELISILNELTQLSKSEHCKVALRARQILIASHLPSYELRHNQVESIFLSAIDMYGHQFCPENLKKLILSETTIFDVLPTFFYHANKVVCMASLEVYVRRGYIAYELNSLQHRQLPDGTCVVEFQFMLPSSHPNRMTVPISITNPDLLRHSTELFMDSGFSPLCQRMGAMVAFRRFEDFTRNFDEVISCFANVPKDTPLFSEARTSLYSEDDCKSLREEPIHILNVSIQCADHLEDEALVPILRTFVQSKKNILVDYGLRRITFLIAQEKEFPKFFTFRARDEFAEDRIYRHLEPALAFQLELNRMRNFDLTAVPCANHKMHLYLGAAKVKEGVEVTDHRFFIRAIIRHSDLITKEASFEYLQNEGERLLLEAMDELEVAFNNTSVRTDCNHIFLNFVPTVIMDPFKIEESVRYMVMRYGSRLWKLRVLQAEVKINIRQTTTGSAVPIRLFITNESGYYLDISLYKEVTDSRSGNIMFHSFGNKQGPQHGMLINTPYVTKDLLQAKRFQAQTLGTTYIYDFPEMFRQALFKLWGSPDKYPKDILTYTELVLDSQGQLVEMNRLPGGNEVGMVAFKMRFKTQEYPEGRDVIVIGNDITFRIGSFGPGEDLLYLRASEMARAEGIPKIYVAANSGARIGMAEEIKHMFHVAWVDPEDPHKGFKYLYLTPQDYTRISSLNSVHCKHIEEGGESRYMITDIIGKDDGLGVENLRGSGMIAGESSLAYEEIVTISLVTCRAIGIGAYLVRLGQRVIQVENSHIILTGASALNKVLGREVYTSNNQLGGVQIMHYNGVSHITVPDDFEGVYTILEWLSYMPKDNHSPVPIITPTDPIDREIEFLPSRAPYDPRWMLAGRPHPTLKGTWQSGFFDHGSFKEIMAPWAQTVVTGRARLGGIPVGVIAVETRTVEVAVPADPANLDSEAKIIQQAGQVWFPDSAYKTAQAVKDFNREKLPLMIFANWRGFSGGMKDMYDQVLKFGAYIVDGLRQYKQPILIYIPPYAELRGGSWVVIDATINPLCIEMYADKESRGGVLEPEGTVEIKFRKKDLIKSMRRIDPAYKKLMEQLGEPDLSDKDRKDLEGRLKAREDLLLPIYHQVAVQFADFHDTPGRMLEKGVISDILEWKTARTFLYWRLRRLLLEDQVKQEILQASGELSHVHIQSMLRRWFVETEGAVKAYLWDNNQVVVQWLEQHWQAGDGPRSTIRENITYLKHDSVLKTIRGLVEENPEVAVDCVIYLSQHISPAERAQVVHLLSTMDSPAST

Broadly, the IC50 is the concentration at which inhibition is half-maximal. Consider `COc1cc(C(=O)N2CCC3(CC2)Cc2ccc(Nc4ccnn4C)cc2C(=O)O3)cc2c(OC)cccc12` [Example 5, 1′-(4,8-dimethoxy-2-naphthoyl)-7-((1-methyl-1H-pyrazol-5-yl)amino)spiro[isochroman-3,4′-piperidin]-1-one], for which the IC50 in assay [1] is 0.37 nM.
For the compound `Cc1nc2ccc(C(=O)N3CCC4(CC3)Cc3ccc(C(C)C)cc3C(=O)O4)cc2[nH]1` [Example 7, 7-isopropyl-1′-(2-methyl-1H-benzo[d]imidazole-6-carbonyl)spiro[isochroman-3,4′-piperidin]-1-one], the IC50 in assay [2] is 6150 nM.
Still for that read-out and setting: with `CC(C)c1ccc2c(c1)C(=O)OC1(CCN(C(=O)c3ccc4[nH]ncc4c3)CC1)C2` [Example 8, 1′-(1H-indazole-5-carbonyl)-7-isopropylspiro[isochroman-3,4′-piperidin]-1-one] the figure was 442 nM.
Same read-out and setting: with `CC(C)c1ccc2c(c1)C(=O)OC1(CCN(C(=O)c3cc4ncccc4[nH]3)CC1)C2` [Example 9, 7-isopropyl-1′-(1H-pyrrolo[3,2-b]pyridine-2-carbonyl)-spiro[isochroman-3,4′-piperidin]-1-one] the figure was 714 nM; with `CC(C)c1ccc2c(c1)C(=O)OC1(CCN(C(=O)c3ccc4cn[nH]c4c3)CC1)C2` [Example 10, 1′-(1H-indazole-6-carbonyl)-7-isopropylspiro-[isochroman-3,4′-piperidin]-1-one], 676 nM.
Still for that read-out and setting: with `COc1ccc2ncc(C(=O)N3CCC4(CC3)Cc3ccc(C(C)C)cc3C(=O)O4)cc2c1` [Example 11, 7-isopropyl-1′-(6-methoxyquinoline-3-carbonyl)spiro [isochroman-3,4′-piperidin]-1-one] the figure was 142 nM; with `CCc1nc2ccc(C(=O)N3CCC4(CC3)Cc3ccc(C(C)C)cc3C(=O)O4)cc2[nH]1` [Example 12, 1′-(2-ethyl-1H-benzo[d]imidazole-6-carbonyl)-7-isopropylspiro[isochroman-3,4′-piperidin]-1-one], 3490 nM; with `CC(C)c1ccc2c(c1)C(=O)OC1(CCN(C(=O)c3ccc4[nH]c(=O)n(C)c4c3)CC1)C2` [Example 13, 7-isopropyl-1′-(3-methyl-2-oxo-2,3-dihydro-1H-benzo [d]imidazole-5-carbonyl)spiro[isochroman-3,4′-piperidin]-1-one], 2440 nM.
On to `COC(=O)c1cncc(-c2ccc3c(c2)C(=O)OC2(CCN(C(=O)c4cc(OC)c5cccc(C6CC6)c5n4)CC2)C3)c1` [Example 19, methyl 5-(1′-(8-cyclopropyl-4-methoxyquinoline-2-carbonyl)-1-oxospiro[isochroman-3,4′-piperidin]-7-yl)nicotinate], for which the IC50 came to 740 nM in assay [3] and 1120 nM in assay [4].
Taken in the same sequence, the figures for `COC(=O)c1cncc(-c2ccc3c(c2)C(=O)OC2(CCN(C(=O)c4cc(OC)c5c(C)cn(C6CC6)c5c4)CC2)C3)c1` [Example 21, methyl 5-(1′-(1-cyclopropyl-4-methoxy-3-methyl-1H-indole-6-carbonyl)-1-oxospiro[isochroman-3,4′-piperidin]-7-yl)nicotinate] were 221 nM and 296 nM.
On to `COc1cc(C(=O)N2CCC3(CC2)Cc2ccc(-c4cncc(C(=O)O)c4)cc2C(=O)O3)cc2c1c(C)cn2C1CC1` [Example 22, 5-(1′-(1-cyclopropyl-4-methoxy-3-methyl-1H-indole-6-carbonyl)-1-oxospiro[isochroman-3,4′-piperidin]-7-yl)nicotinic acid], for which the values for the IC50 in assay [3] and in assay [4] were 11.1 nM and 23.9 nM, respectively.

The values are drawn from US12102633B2, “Spirolactone compounds” (Quixgen, Inc., priority 2017, dated 2024).
